Measurements from patent publication US20150105252A1, “SUBSTITUTED PYRAZOLES AS HERBICIDES” (E I DU PONT DE NEMOURS AND COMPANY, priority 2013, published 2015).

Assays:
[1] = system: kochia; assay: Test C postemergence; type: in vivo, Kochia scoparia
Procedure, shortened: (§1)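 In this greenhouse assay, seeded soil (loam plus sand) or emerged seedlings in peat-vermiculite medium were treated with formulated compound. Roughly two weeks later (13–15 days), each species was scored visually relative to controls, from 0 for no effect to 100 for complete control.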

[2] = system: oat, wild; assay: Test C postemergence; type: in vivo, Avena fatua
Procedure, shortened: as §1

[3] = system: blackgrass; assay: Test C postemergence; type: in vivo, Alopecurus myosuroides
Procedure, shortened: as §1

[4] = system: barnyardgrass; assay: Test C postemergence; type: in vivo, Echinochloa crus-galli
Procedure, shortened: as §1

[5] = system: morningglory; assay: Test C postemergence; type: in vivo, Ipomoea coccinea
Procedure, shortened: as §1

[6] = system: waterhemp; assay: Test C postemergence; type: in vivo, Amaranthus rudis
Procedure, shortened: as §1

[7] = system: oilseed rape; assay: Test C postemergence; type: in vivo, Brassica napus
Procedure, shortened: as §1

[8] = system: ryegrass, Italian; assay: Test C postemergence; type: in vivo, Lolium multiflorum; settings: for Plant response rating, Ryegrass, Italian: postemergence
Procedure, shortened: as §1

[9] = system: galium; assay: Test C postemergence; type: in vivo, Galium aparine
Procedure, shortened: as §1

[10] = system: crabgrass, large; assay: Test C postemergence; type: in vivo, Digitaria sanguinalis
Procedure, shortened: as §1

[11] = system: nutsedge, yellow; assay: Test C postemergence; type: in vivo, Cyperus esculentus
Procedure, shortened: as §1

[12] = system: lambsquarters; assay: Test C postemergence; type: in vivo, Chenopodium album
Procedure, shortened: as §1

[13] = system: lambsquarters; assay: Test C preemergence; type: in vivo, Chenopodium album; settings: preemergence
Procedure, shortened: as §1

[14] = system: foxtail, giant; assay: Test C postemergence; type: in vivo, Setaria faberii
Procedure, shortened: as §1

[15] = system: velvetleaf; assay: Test C postemergence; type: in vivo, Abutilon theophrasti
Procedure, shortened: as §1

[16] = Postemergence, 31 g ai/ha, visually evaluated after 13 to 15 days
[17] = postemergence, 62 g ai/ha, scale 0 to 100
[18] = postemergence, 250 g ai/ha, scale 0 to 100 (0 no effect, 100 complete control)
[19] = postemergence, 125 g ai/ha, scale 0 to 100, 0 no effect, 100 complete control

CCc1cc(C(=O)NC(C)C)nn1Cc1ccnc(C(F)(F)F)c1 [Compound 139]
Plant response rating (scale of 0 to 100 where 0 is no effect and 100 is complete control), Kochia [1, 16]: 60 | Kochia plant response rating [1, 17]: 75 | Plant response rating, Kochia [1, 18]: 85 | Plant response rating, Kochia [1, 19]: 85 | Plant response rating (scale of 0 to 100 where 0 is no effect and 100 is complete control), Oat, Wild [2, 16]: 10 | Oat, Wild plant response rating [2, 17]: 10 | Plant response rating, Oat, Wild [2, 18]: 40 | Plant response rating, Oat, Wild [2, 19]: 30 | Plant response rating (scale of 0 to 100 where 0 is no effect and 100 is complete control), Blackgrass [3, 16]: 20 | Blackgrass plant response rating [3, 17]: 20 | Plant response rating, Blackgrass [3, 18]: 35 | Plant response rating, Blackgrass [3, 19]: 20 | Plant response rating (scale of 0 to 100 where 0 is no effect and 100 is complete control), Barnyardgrass [4, 16]: 10 | Barnyardgrass plant response rating [4, 17]: 10 | Plant response rating, Barnyardgrass [4, 18]: 20 | Plant response rating, Barnyardgrass [4, 19]: 10 | Plant response rating (scale of 0 to 100 where 0 is no effect and 100 is complete control), Morningglory [5, 16]: 60 | Morningglory plant response rating [5, 17]: 60 | Plant response rating, Morningglory [5, 18]: 80 | Plant response rating, Morningglory [5, 19]: 90 | Plant response rating (scale of 0 to 100 where 0 is no effect and 100 is complete control), Waterhemp [6, 16]: 30 | Plant response rating, Waterhemp [6, 18]: 65 | Waterhemp plant response rating ([6]; postemergence, scale 0 to 100): 55 | Plant response rating (scale of 0 to 100 where 0 is no effect and 100 is complete control), Oilseed Rape [7, 16]: 20 | Oilseed Rape plant response rating [7, 17]: 45 | Plant response rating, Oilseed Rape [7, 18]: 50 | Plant response rating, Oilseed Rape [7, 19]: 50 | Plant response rating (scale of 0 to 100 where 0 is no effect and 100 is complete control), Ryegrass, Italian [8, 16]: 0 | Plant response rating, Ryegrass, Italian ([8]; 250 g ai/ha, scale 0 to 100 (0 no effect, 100 complete control)): 5 | Plant response rating, Ryegrass, Italian ([8]; 125 g ai/ha, scale 0 to 100, 0 no effect, 100 complete control): 10 | Plant response rating (scale of 0 to 100 where 0 is no effect and 100 is complete control), Galium [9, 16]: 50 | Galium plant response rating [9, 17]: 60 | Plant response rating, Galium [9, 18]: 70 | Plant response rating, Galium [9, 19]: 60 | Plant response rating (scale of 0 to 100 where 0 is no effect and 100 is complete control), Crabgrass, Large [10, 16]: 10 | Crabgrass, Large plant response rating [10, 17]: 10 | Plant response rating, Crabgrass, Large [10, 18]: 20 | Plant response rating, Crabgrass, Large [10, 19]: 15 | Plant response rating (scale of 0 to 100 where 0 is no effect and 100 is complete control), Nutsedge, Yellow [11, 16]: 5 | Nutsedge, Yellow plant response rating [11, 17]: 5 | Plant response rating, Nutsedge, Yellow [11, 18]: 5 | Plant response rating, Nutsedge, Yellow [11, 19]: 5 | Plant response rating (scale of 0 to 100 where 0 is no effect and 100 is complete control), Lambsquarters [12, 16]: 40 | Lambsquarters plant response rating [12, 17]: 55 | Plant response rating, Lambsquarters [12, 18]: 85 | Plant response rating, Lambsquarters [12, 19]: 70 | Lambsquarters plant response rating ([13]; 31 g ai/ha, visual rating, scale 0 to 100 (0 no effect, 100 complete control), 13 to 15 days): 35 | Lambsquarters plant response rating ([13]; 62 g ai/ha, scale 0 to 100 (0 no effect, 100 complete control), 13 to 15 days): 85 | Plant response rating, Lambsquarters ([13]; 125 g ai/ha, 13 to 15 days, scale 0 to 100, 0 = no effect, 100 = complete control): 100 | Lambsquarters plant response rating ([13]; 250 g ai/ha, scale 0 to 100, 0 is no effect, 100 is complete control): 100 | Plant response rating (scale of 0 to 100 where 0 is no effect and 100 is complete control), Foxtail, Giant [14, 16]: 5 | Foxtail, Giant plant response rating [14, 17]: 5 | Plant response rating, Foxtail, Giant [14, 18]: 65 | Plant response rating, Foxtail, Giant [14, 19]: 10 | Plant response rating (scale of 0 to 100 where 0 is no effect and 100 is complete control), Velvetleaf [15, 16]: 10 | Plant response rating, Velvetleaf [15, 18]: 25 | Velvetleaf plant response rating ([15]; postemergence, scale 0 to 100): 15
